Source: ChEMBL document CHEMBL4257535, “Design, synthesis and biological evaluation of AKT inhibitors bearing a piperidin-4-yl appendant” (Medchemcomm, 2018)
pIC50: −log10 of the molar value. The source made the active and inactive calls. The calls are words filed in the database; no cut-off is given here.

target: T1, RAC-alpha serine/threonine-protein kinase (Homo sapiens, UniProt P31749); experiment: Inhibition of AKT1 (unknown origin) at 0.1 uM using biotin-labelled STK as substrate measured after 45 mins by HTRF method relative to control; details: not given
T1 sequence (P31749 whole entry): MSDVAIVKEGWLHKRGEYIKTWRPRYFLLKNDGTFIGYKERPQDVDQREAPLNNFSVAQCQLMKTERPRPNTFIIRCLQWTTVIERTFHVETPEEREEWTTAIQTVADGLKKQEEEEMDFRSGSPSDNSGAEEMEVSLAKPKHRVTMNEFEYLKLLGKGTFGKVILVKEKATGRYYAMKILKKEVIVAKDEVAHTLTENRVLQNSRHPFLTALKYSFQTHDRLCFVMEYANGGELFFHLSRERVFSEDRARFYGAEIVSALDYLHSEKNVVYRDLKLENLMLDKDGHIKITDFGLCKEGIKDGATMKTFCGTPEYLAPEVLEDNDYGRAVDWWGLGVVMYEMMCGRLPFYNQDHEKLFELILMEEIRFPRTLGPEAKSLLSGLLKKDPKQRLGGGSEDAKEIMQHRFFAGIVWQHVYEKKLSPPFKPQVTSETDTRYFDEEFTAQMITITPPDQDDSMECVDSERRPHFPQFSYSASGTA

| SMILES | inhibition |
| --- | --- |
| O=C(N1CCN(c2ncnc3[nH]nc(Cl)c23)CC1)C1(c2ccc(Cl)cc2)CCNCC1 | 83.4% |
| O=C(N1CCN(c2ncnc3[nH]nc(Br)c23)CC1)C1(c2ccc(Br)cc2)CCNCC1 | 90.6% |
| O=C(N1CCN(c2ncnc3[nH]nc(Cl)c23)CC1)C1(c2ccc(Br)cc2)CCNCC1 | 84.5% |
| O=C(N1CCN(c2ncnc3[nH]nc(Br)c23)CC1)C1(c2ccc(Cl)cc2)CCNCC1 | 86.7% |
| O=C(N1CCN(c2ncnc3[nH]nc(Cl)c23)CC1)C1(c2ccc(F)cc2)CCNCC1 | 60.9% |
| O=C(N1CCN(c2ncnc3[nH]nc(Br)c23)CC1)C1(c2ccc(Cl)c(Cl)c2)CCNCC1 | 90.9% |
| CCn1c(-c2nonc2N)nc2c(C#CC(C)(C)O)ncc(OC[C@H]3CCCNC3)c21 [GSK-690693] | 98.5% |
| O=C(N1CCN(c2ncnc3[nH]nc(Br)c23)CC1)C1(c2ccc(F)cc2)CCNCC1 | 53.3% |

target: T1, RAC-alpha serine/threonine-protein kinase; experiment: Inhibition of AKT1 (unknown origin) at 50 nM using biotin-labelled STK as substrate measured after 45 mins by HTRF method relative to control; details: not given

| SMILES | inhibition |
| --- | --- |
| O=C(Cc1ccc(Cl)c(Cl)c1)N1CCN(c2ncnc3[nH]cc(Br)c23)CC1 | 65.5% |
| O=C(Cc1ccc(Cl)cc1)N1CCN(c2ncnc3[nH]cc(Br)c23)CC1 | 69.7% |

target: T1, RAC-alpha serine/threonine-protein kinase; experiment: Inhibition of AKT in human PC3 cells assessed as reduction in GSK3beta phosphorylation at 1 to 10 uM after 4 hrs by Western blot analysis; type: cell-based; details: not given

| SMILES | inhibition |
| --- | --- |
| CCn1c(-c2nonc2N)nc2c(C#CC(C)(C)O)ncc(OC[C@H]3CCCNC3)c21 [GSK-690693] | Active |

tested on: not listed separately; experiment: in vitro; set-up: dose or concentration left out as unconfirmed; details: human, liver microsomes
Description: Half life in human liver microsomes at 10 mM preincubated for 10 mins followed by NADPH addition by LC-MS analysis

| SMILES | half-life |
| --- | --- |
| O=C(O)Cc1ccccc1Nc1c(Cl)cccc1Cl [DICLOFENAC] | 10.2 min |
| C[C@]12CC[C@H]3[C@@H](CCC4=CC(=O)CC[C@@]43C)[C@@H]1CC[C@@H]2O [TESTOSTERONE] | 16.9 min |

tested on: PC-3; experiment: Antiproliferative activity against human PC3 cells after 72 hrs by MTT assay; type: functional, cell-based; details: PC-3, 72 h

| SMILES | pIC50 |
| --- | --- |
| O=C(N1CCN(c2ncnc3[nH]nc(Cl)c23)CC1)C1(c2ccc(Cl)cc2)CCNCC1 | 4.71 |
| O=C(Cc1ccc(Cl)c(Cl)c1)N1CCN(c2ncnc3[nH]cc(Br)c23)CC1 | 4.50 |
| O=C(N1CCN(c2ncnc3ccccc23)CC1)C1(c2ccc(Cl)cc2)CCNCC1 | < 4.40 |
| O=C(N1CCN(c2ncnc3ccccc23)CC1)C1(c2ccc(F)cc2)CCNCC1 | 4.86 |
| O=C(N1CCN(c2ncnc3[nH]nc(Br)c23)CC1)C1(c2ccc(Br)cc2)CCNCC1 | 4.82 |
| O=C(N1CCN(c2ncnc3[nH]cnc23)CC1)C1(c2ccc(F)cc2)CCNCC1 | < 4.40 |
| O=C(N1CCN(c2ncnc3[nH]nc(Cl)c23)CC1)C1(c2ccc(Br)cc2)CCNCC1 | 4.49 |
| O=C(N1CCN(c2ncnc3[nH]nc(Br)c23)CC1)C1(c2ccc(Cl)cc2)CCNCC1 | 5.01 |
| O=C(N1CCN(c2ncnc3[nH]nc(Cl)c23)CC1)C1(c2ccc(F)cc2)CCNCC1 | 4.43 |
| O=C(N1CCN(c2ncnc3[nH]ncc23)CC1)C1(c2ccc(Cl)c(Cl)c2)CCNCC1 | < 4.40 |
| O=C(N1CCN(c2ncnc3[nH]ncc23)CC1)C1(c2ccc(Br)cc2)CCNCC1 | < 4.40 |
| O=C(N1CCN(c2ncnc3[nH]nc(Br)c23)CC1)C1(c2ccc(Cl)c(Cl)c2)CCNCC1 | 4.99 |
| O=C(N1CCN(c2ncnc3ccccc23)CC1)C1(c2ccc(Cl)c(Cl)c2)CCNCC1 | 4.85 |
| CCn1c(-c2nonc2N)nc2c(C#CC(C)(C)O)ncc(OC[C@H]3CCCNC3)c21 [GSK-690693] | 4.85 |
| O=C(N1CCN(c2ncnc3[nH]cnc23)CC1)C1(c2ccc(Cl)c(Cl)c2)CCNCC1 | 4.47 |
| O=C(N1CCN(c2ncnc3[nH]cnc23)CC1)C1(c2ccc(Br)cc2)CCNCC1 | < 4.40 |
| O=C(N1CCN(c2ncnc3[nH]ncc23)CC1)C1(c2ccc(F)cc2)CCNCC1 | < 4.40 |
| O=C(N1CCN(c2ncnc3ccccc23)CC1)C1(c2ccc(Br)cc2)CCNCC1 | 4.64 |
| O=C(N1CCN(c2ncnc3[nH]nc(Br)c23)CC1)C1(c2ccc(F)cc2)CCNCC1 | 4.44 |
| O=C(N1CCN(c2ncnc3[nH]ncc23)CC1)C1(c2ccc(Cl)cc2)CCNCC1 | < 4.40 |
| O=C(Cc1ccc(Cl)cc1)N1CCN(c2ncnc3[nH]cc(Br)c23)CC1 | 4.68 |
| O=C(N1CCN(c2ncnc3[nH]cnc23)CC1)C1(c2ccc(Cl)cc2)CCNCC1 | < 4.40 |

target: T1, RAC-alpha serine/threonine-protein kinase; experiment: Inhibition of AKT1 (unknown origin) using biotin-labelled STK as substrate measured after 45 mins by HTRF method; details: not given

| SMILES | pIC50 |
| --- | --- |
| O=C(N1CCN(c2ncnc3[nH]nc(Cl)c23)CC1)C1(c2ccc(Cl)cc2)CCNCC1 | 7.18 |
| O=C(N1CCN(c2ncnc3[nH]nc(Br)c23)CC1)C1(c2ccc(Br)cc2)CCNCC1 | 7.28 |
| O=C(N1CCN(c2ncnc3[nH]nc(Cl)c23)CC1)C1(c2ccc(Br)cc2)CCNCC1 | 7.48 |
| O=C(N1CCN(c2ncnc3[nH]nc(Br)c23)CC1)C1(c2ccc(Cl)cc2)CCNCC1 | 7.57 |
| O=C(N1CCN(c2ncnc3[nH]nc(Br)c23)CC1)C1(c2ccc(Cl)c(Cl)c2)CCNCC1 | 7.52 |

tested on: not listed separately; experiment: in vitro; set-up: dose or concentration left out as unconfirmed; details: human, liver microsomes; remark: another data set of the same source
Description: Stability in human liver microsomes assessed as parent compound remaining at 10 mM preincubated for 10 mins followed by NADPH addition and measured after 60 mins by LC-MS analysis

| SMILES | remaining at 1 h |
| --- | --- |
| C[C@]12CC[C@H]3[C@@H](CCC4=CC(=O)CC[C@@]43C)[C@@H]1CC[C@@H]2O [TESTOSTERONE] | 8.1% |

target: T1, RAC-alpha serine/threonine-protein kinase; experiment: Inhibition of AKT1 (unknown origin) at 1 uM using biotin-labelled STK as substrate measured after 45 mins by HTRF method relative to control; details: not given

| SMILES | inhibition |
| --- | --- |
| O=C(N1CCN(c2ncnc3[nH]nc(Cl)c23)CC1)C1(c2ccc(Cl)cc2)CCNCC1 | 91.9% |
| O=C(N1CCN(c2ncnc3ccccc23)CC1)C1(c2ccc(Cl)cc2)CCNCC1 | 34.2% |
| O=C(N1CCN(c2ncnc3ccccc23)CC1)C1(c2ccc(F)cc2)CCNCC1 | 23% |
| O=C(N1CCN(c2ncnc3[nH]nc(Br)c23)CC1)C1(c2ccc(Br)cc2)CCNCC1 | 96.5% |
| O=C(N1CCN(c2ncnc3[nH]cnc23)CC1)C1(c2ccc(F)cc2)CCNCC1 | 94.2% |
| O=C(N1CCN(c2ncnc3[nH]nc(Cl)c23)CC1)C1(c2ccc(Br)cc2)CCNCC1 | 95.4% |
| O=C(N1CCN(c2ncnc3[nH]nc(Br)c23)CC1)C1(c2ccc(Cl)cc2)CCNCC1 | 96.7% |
| O=C(N1CCN(c2ncnc3[nH]nc(Cl)c23)CC1)C1(c2ccc(F)cc2)CCNCC1 | 86.7% |
| O=C(N1CCN(c2ncnc3[nH]ncc23)CC1)C1(c2ccc(Cl)c(Cl)c2)CCNCC1 | 52.1% |
| O=C(N1CCN(c2ncnc3[nH]ncc23)CC1)C1(c2ccc(Br)cc2)CCNCC1 | 11.6% |
| O=C(N1CCN(c2ncnc3[nH]nc(Br)c23)CC1)C1(c2ccc(Cl)c(Cl)c2)CCNCC1 | 93.8% |
| O=C(N1CCN(c2ncnc3ccccc23)CC1)C1(c2ccc(Cl)c(Cl)c2)CCNCC1 | 21.9% |
| CCn1c(-c2nonc2N)nc2c(C#CC(C)(C)O)ncc(OC[C@H]3CCCNC3)c21 [GSK-690693] | 99.5% |
| O=C(N1CCN(c2ncnc3[nH]cnc23)CC1)C1(c2ccc(Cl)c(Cl)c2)CCNCC1 | 51.4% |
| O=C(N1CCN(c2ncnc3[nH]cnc23)CC1)C1(c2ccc(Br)cc2)CCNCC1 | 68% |
| O=C(N1CCN(c2ncnc3[nH]ncc23)CC1)C1(c2ccc(F)cc2)CCNCC1 | 7.4% |
| O=C(N1CCN(c2ncnc3ccccc23)CC1)C1(c2ccc(Br)cc2)CCNCC1 | 6.1% |
| O=C(N1CCN(c2ncnc3[nH]nc(Br)c23)CC1)C1(c2ccc(F)cc2)CCNCC1 | 93.2% |
| O=C(N1CCN(c2ncnc3[nH]ncc23)CC1)C1(c2ccc(Cl)cc2)CCNCC1 | 38.7% |
| O=C(N1CCN(c2ncnc3[nH]cnc23)CC1)C1(c2ccc(Cl)cc2)CCNCC1 | 45.6% |

tested on: not listed separately; experiment: in vitro; set-up: dose or concentration left out as unconfirmed; details: human, liver microsomes; remark: another data set of the same source
Description: Intrinsic clearance in human liver microsomes at 10 mM preincubated for 10 mins followed by NADPH addition and measured after 5 to 60 mins by LC-MS analysis

| SMILES | CLint scaled | microsomal CLint |
| --- | --- | --- |
| O=C(O)Cc1ccccc1Nc1c(Cl)cccc1Cl [DICLOFENAC] | 123 mL/min/kg | 136 µL/min/mg |
| C[C@]12CC[C@H]3[C@@H](CCC4=CC(=O)CC[C@@]43C)[C@@H]1CC[C@@H]2O [TESTOSTERONE] | 74 mL/min/kg | 82.2 µL/min/mg |
